Assay results from patent publication US8022043B2, “Ceramide derivatives as modulators of immunity and autoimmunity” (Albert Einstein College of Medicine of Yeshiva University, priority 2004, dated 2011).

Key:
Type in all cases: cell-based
iNKT cells = assay: In vitro cytokine modulation, murine cell assay system; conditions: for IFNγ induction: DB03-3: in some murine strains; for in vitro activity at modulating cytokines: murine cell assay system
Excerpt: The term iNKT cells, as used herein, mean the specific subset of CD1d-dependent T cells that expresses the invariant TCRα chain rearrangement consisting of Vα14-Jα18 in mice, and Vα24-Jα18 in humans. These cells are uniformly reactive to α-galactosylceramides presented by CD1d. These cells are also referred to as “Type 1” NKT cells, and the distinction between the different types of NKT cells and the nomenclature relating to this are summarized in the publication by Godfrey et al., Nat Rev Immunol. 2004 March; 4(3):231-7. Methods for determining cytokine production by iNKT cells in response to CD1d-presented glycolipids for determination of strong or weak agonist activity are described in Yu K O A, Im J S, Molano A, Dutronc Y, Illarionov P A, Forestier C, Fujiwara N, Arias I, Miyake S, Yamamura T, Chang Y-T, Besra G S, Porcelli S A, Modulation of CD1d-restricted NKT cell responses using N-acyl variants of α-galactosylceramides, Proc. Nat. Acad. Sci. (USA), 102:3383-8 (2005), see also Godfrey D I et al., Nat Rev Immunol. 2004 March; 4(3):231-7.

[1] = test system: Bulk splenocytes from C57BL/6 mice; assay: Splenocyte proliferation assay (3H-thymidine incorporation); conditions: concentration giving 50% maximal response in proliferation of splenocyte cultures, 3H-thymidine incorporation
Protocol: The results were obtained using a splenocyte proliferation assay according to the following procedure: Bulk splenocytes from C57BL/6 mice were plated at 300,000 per well in 96-well flat-bottom tissue culture plates with the indicated ceramide-like glycolipid diluted in complete medium to the concentrations shown. After 48 h at 37° C., the plate wells were pulsed with 20 microliters of medium containing 50 microCi/ml ^3H-thymidine and incubated for a further 18 h. Cell proliferation was estimated by harvesting pulsed cells onto 96-well filtermats and scintillation counting on a 1450 Microbeta Trilux instrument (Wallac/Perkin Elmer, Boston, Mass.).

[2] = test system: Bulk splenocytes from C57BL/6 mice; assay: Cytokine response of splenocyte cultures (IL-4 and IFNγ ELISA); conditions: 500 nM glycolipid, 48 hours; for Cytokine Response IFNγ / Cytokine Response IL-4: culture supernatant ELISA, ND = below the reliable level for detection
Protocol: The cytokine response reported in Table 1 and FIG. 5C was determined by the following procedure: Bulk splenocytes from C57BL/6 mice were plated at 300,000 per well in 96-well flat-bottom tissue culture plates with ceramide-like glycolipids diluted to a concentration of 500 nM in 200 microliters complete medium. After 48 h at 37° C., 150 microliters of supernatant was removed for cytokine measurements. Supernatant levels of IL-4, and IFNγ were measured by standard enzyme-linked immunosorbent assay (ELISA), using capture and biotinylated detection antibody pairs (clones 11B11/BVD6-24G2-biotin, and R4-6A2/XMG1.2-biotin, respectively, from BD Pharmingen, San Diego, Calif.). […] Standards for IL-4 and IFNγ were from Peprotech (Rocky Hill, N.J.).

NK T cells = assay: NK T cell activation screens (Example, FIG. 5 and Table 1); conditions: see Example
Excerpt: Using these methods, we produced more than 60 novel amino substituted analogues of KRN7000. These were screened in a functional assay that assessed the ability of the compounds to activate NK T cell hybridomas in the presence of various types of cells expressing CD1d, or in the presence of recombinant CD1d proteins bound to the tissue culture plate surface (FIG. 5).

Row | Structure (SMILES) | IL-4 induction (iNKT cells; in vitro) | IFNγ induction (iNKT cells; in vitro) | in vitro activity at modulating cytokines (iNKT cells) | EC50 [1] [nM] | IL-4/IFNγ ratio divided by this ratio for DB01-1 (value in parentheses) [2] | ratio IL-4/IFNγ [2] | Cytokine Response IFNγ [2] [ng/mL] | Cytokine Response IL-4 [2] [ng/mL] | effectiveness of compound (NK T cells) | IL-2 induction (iNKT cells; in vitro)
1 | CCCCCCCC/C=C\CCCCCCCCCC(=O)N[C@@H](COC1OC(CO)C(O)C(O)C1O)[C@H](O)[C@H](O)CCCCCCCCCCCCCC (some centres unmarked) [DB03-3] | good inducer of L-4 | strong inducer of IFNγ | show in vitro activity | – | – | – | – | – | – | –
2 | CCCCCCCCCCCCCC[C@@H](O)[C@@H](O)[C@H](CO[C@H]1O[C@H](CO)[C@H](O)[C@H](O)[C@H]1O)NC(=O)C(OC)c1ccccc1 (some centres unmarked) [YTCO3-48] | – | – | – | 86.9 | 0.6 | 0.016 | 12.56 | 0.20 | – | –
3 | CCCCCCCCCCCCCC[C@@H](O)[C@@H](O)[C@H](CO[C@H]1O[C@H](CO)[C@H](O)[C@H](O)[C@H]1O)NC(=O)C(C)(c1ccccc1)c1ccccc1 [YTCO3-58] | – | – | – | 51.8 | 0.9 | 0.024 | 8.64 | 0.21 | – | –
4 | CCCCCCCCCCCCCCC(O)C(O)C(COC1OC(CO)C(O)C(O)C1O)NC(=O)C=Cc1ccccc1 (centres unmarked) [YTCO3-42] | – | – | – | > 2500 | – | – | – | – | – | –
5 | CCCCCCCCCCCCCC[C@@H](O)[C@@H](O)[C@H](CO[C@H]1O[C@H](CO)[C@H](O)[C@H](O)[C@H]1O)NC(=O)c1ccc(OCCCCCCC)cc1 [YTCO3-53] | – | – | – | 38 | 1.2 | 0.030 | 0.67 | 0.02 | – | –
6 | CCCCCCCCCCCCCCC(O)C(O)C(COC1OC(CO)C(O)C(O)C1O)NC(=O)CCCCC (centres unmarked) [YTC03-31] | – | – | – | – | – | – | – | – | Particularly effective | –
7 | CCCCCCCCCCCCCCC(O)C(O)C(COC1OC(CO)C(O)C(O)C1O)NC(=O)CCCCCCCCCCC (centres unmarked) [YTC03-35] | – | – | – | – | – | – | – | – | Particularly effective | –
8 | CCCCCCCCCCCCCC[C@@H](O)[C@@H](O)[C@H](CO[C@H]1O[C@H](CO)[C@H](O)[C@H](O)[C@H]1O)NC(=O)Cc1ccc(OCC)cc1 [YTCO3-59] | – | – | – | 0.1 | 309.4 | 8.045 | 0.22 | 1.77 | Particularly effective | –
9 | CCCCCCCCCCCCCC[C@@H](O)[C@@H](O)[C@H](CO[C@H]1O[C@H](CO)[C@H](O)[C@H](O)[C@H]1O)NC(=O)Cc1ccc(Br)cc1 [YTCO3-47] | – | – | – | 7.5 | 0.4 | 0.011 | 19.63 | 0.21 | Particularly effective | –
10 | CCCCCCCCCCCCCC[C@@H](O)[C@@H](O)[C@H](CO[C@H]1O[C@H](CO)[C@H](O)[C@H](O)[C@H]1O)NC(=O)Cc1cccc(C)c1 [YTCO3-52] | – | – | – | 17 | 0.7 | 0.019 | 10.25 | 0.19 | – | –
11 | CCCCCCCCCCCCCC[C@@H](O)[C@@H](O)[C@H](CO[C@H]1O[C@H](CO)[C@H](O)[C@H](O)[C@H]1O)NC(=O)[C@H](Cc1ccccc1)NC(=O)OC(C)(C)C [YTCO3-57] | – | – | – | 2190 | – | – | – | – | – | –
12 | CCCCCCCCCCCCCCC(O)C(O)C(COC1OC(CO)C(O)C(O)C1O)NC(=O)Cc1ccc2c(c1)OCO2 (centres unmarked) [YTCO3-44] | – | – | – | 57.1 | 3.7 | 0.097 | 14.19 | 1.38 | – | –
13 | CCCCCCCCCCCCCC[C@@H](O)[C@@H](O)[C@H](CO[C@H]1O[C@H](CO)[C@H](O)[C@H](O)[C@H]1O)NC(=O)C(c1ccccc1)C(C)CC (some centres unmarked) [YTCO3-60] | – | – | – | 10.9 | 0.8 | 0.022 | 8.18 | 0.18 | Particularly effective | –
14 | CCCCCCCCCCCCCC[C@@H](O)[C@@H](O)[C@H](CO[C@H]1O[C@H](CO)[C@H](O)[C@H](O)[C@H]1O)NC(=O)C(CC)c1ccccc1 (some centres unmarked) [YTCO3-61] | – | – | – | 72.4 | 0.9 | 0.023 | 7.50 | 0.17 | – | –
15 | CCCCCCCCCCCCCC[C@@H](O)[C@@H](O)[C@H](CO[C@H]1O[C@H](CO)[C@H](O)[C@H](O)[C@H]1O)N=[N+]=[N-] [DB03-7] | – | – | show in vitro activity | – | – | – | – | – | – | –
16 | CCCCCCCCCCCCCCC(O)C(O)C(COC1OC(CO)C(O)C(O)C1O)NC(=O)Cc1ccccc1OC (centres unmarked) [YTCO3-43] | – | – | – | 86.9 | 0.7 | 0.018 | 19.50 | 0.35 | – | –
17 | CCCCCCCCCCCCCC[C@@H](O)[C@@H](O)[C@H](CO[C@H]1O[C@H](CO)[C@H](O)[C@H](O)[C@H]1O)NC(=O)C1(c2ccccc2)CCCC1 [YTCO3-46] | – | – | – | 4.8 | 1.0 | 0.026 | 8.52 | 0.22 | Particularly effective | –
18 | CCCCCCCCCCCCCC[C@@H](O)[C@@H](O)[C@H](CO[C@H]1O[C@H](CO)[C@H](O)[C@H](O)[C@H]1O)NC(=O)Cc1ccc(C)cc1 [YTCO3-51] | – | – | – | 63.8 | 0.2 | 0.006 | 9.03 | 0.05 | – | –
19 | CCCCCCCCCCCCCC[C@@H](O)[C@@H](O)[C@H](CO[C@H]1O[C@H](CO)[C@H](O)[C@H](O)[C@H]1O)NC(=O)C(c1ccccc1)C1CCCC1 (some centres unmarked) [YTCO3-50] | – | – | – | 5.4 | 0.3 | 0.007 | 9.47 | 0.07 | Particularly effective | –
20 | CCCCCCCCCCCCCCC(O)C(O)C(COC1OC(CO)C(O)C(O)C1O)NC(=O)Cc1ccccc1Cl (centres unmarked) [YTCO3-45] | – | – | – | 222 | 1.6 | 0.041 | 15.26 | 0.63 | – | –
21 | CCCCCCCCCCCCCC[C@@H](O)[C@@H](O)[C@H](CO[C@H]1O[C@H](CO)[C@H](O)[C@H](O)[C@H]1O)NC(=O)Cc1cccc2ccccc12 [YTCO3-56] | – | – | – | 11.4 | 0.7 | 0.019 | 11.79 | 0.22 | Particularly effective | –
22 | CCCCC/C=C\C/C=C\CCCCCCCC(=O)N[C@@H](COC1OC(CO)C(O)C(O)C1O)[C@H](O)[C@H](O)CCCCCCCCCCCCCC (some centres unmarked) [DB03-10] | strong inducers of IL-4 | moderate inducers of IFNγ | show in vitro activity | – | – | – | – | – | – | weak inducers of IL-2
23 | CCCCCCCCCCCCCC[C@@H](O)[C@@H](O)[C@H](CO[C@H]1O[C@H](CO)[C@H](O)[C@H](O)[C@H]1O)NC(=O)Cc1cc(OC)ccc1OC [YTCO3-54] | – | – | – | 17.2 | 0.4 | 0.011 | 10.39 | 0.11 | – | –
24 | CCCCCCCCCCCCCC[C@@H](O)[C@@H](O)[C@H](COC1OC(CO)C(O)C(O)C1O)NC(=O)Cc1ccc(OC)cc1 (some centres unmarked) [YTC03-33] | – | – | – | – | – | – | – | – | Particularly effective | –
25 | CCCCCCCCCCCCCC[C@@H](O)[C@@H](O)[C@H](CO[C@H]1O[C@H](CO)[C@H](O)[C@H](O)[C@H]1O)NC(=O)Cc1c(F)cccc1Cl [YTCO3-49] | – | – | – | 57.1 | 1.1 | 0.028 | 4.57 | 0.13 | – | –
